Common to all, as to format: cell-based
Assay [1] has as its target T1, human Nav1.7 (Homo sapiens, UniProt Q15858).
T1 construct: expressed in transfected cells; host or cells: HEK293
Briefly: Nav 1.7 IWB In Vitro Assay (IonWorks Barracuda). To be noted: HEK293 cells stably transfected with human Nav 1.7; IonWorks Barracuda population patch-clamp; cells clamped to −20 mV for 4 minutes with compound; 26th pulse; read-out: hNav1.7 IWB IC50. The method, boiled down: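 IC50 derived from concentration-response of percent block of the 26th-pulse peak inward current, compound vs none. Protocol: stable human Nav 1.7 HEK293 cells on automated population patch clamp, held at −110 mV, 5 Hz train of 150 ms steps to −20 mV, 4 min compound exposure depolarized at −20 mV, 3 s repolarization, train repeated.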

Assay [2] concerns the target T1, human Nav1.7. In words: Nav 1.7 IWQ In Vitro Assay (IonWorks Quattro). To be noted: HEK293 cells stably transfected with human Nav 1.7; IonWorks Quattro population patch-clamp; 26th pulse to −20 mV, 5 Hz; cells unclamped 5 to 8 minutes with compound; read-out: hNav1.7 IWQ IC50. As for the experimental part: Nav 1.7 or Nav 1.5 IWQ In Vitro Assay
HEK293 cells stably transfected with either human Nav 1.7 or human Nav 1.5 were recorded in population patch-clamp mode with the IonWorks® Quattro automated electrophysiology system (Molecular Devices, LLC, Sunnyvale, Calif.). Cells were voltage clamped to −110 mV for three seconds (Nav 1.7) or half a second (Nav 1.5) and sodium currents were elicited by a train of 26 depolarizations of 150 msec duration to −20 mV (Nav 1.7) or 0 mV (Nav 1.5) at a frequency of 5 Hz. Cells were then left unclamped for a period of 5 to 8 minutes while a single concentration of test compound was added. Following this compound incubation period, cells were then reclamped to −110 mV for three seconds (Nav1.7) or half a second (Nav1.5) to recover unbound channels and put through the same 26 pulse voltage protocol as above. Peak inward current during the 26th pulse to −20 mV (Nav 1.7) or 0 mV (Nav 1.5) in the presence of compound was divided by the peak inward current evoked by the 26th pulse to −20 mV (Nav1.7) or 0 mV (Nav1.5) in the absence of compound to determine percent inhibition. Concentration-response curves of percent.

For assay [3], the target named is T1, human Nav1.7. Briefly: Nav 1.7 In Vitro PatchXpress (PX) Assay. To be noted: HEK 293 cells stably transfected with human Nav1.7; PatchXpress whole cell voltage clamp; partially inactivated state (holding potential yielding 20 to 50% inactivation); read-out: hNav1.7 PX IC50. Put shortly:
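Percent inhibition of peak sodium current taken after 3 min exposure to one compound concentration, 3–5 cells each, with IC50 curve fits. Partially inactivated channels (20–50% inactivation at holding potential) in Nav1.7-HEK 293 cells, activated by 20 ms steps to −10 mV every 10 s.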

T1 sequence (Q15858 whole entry): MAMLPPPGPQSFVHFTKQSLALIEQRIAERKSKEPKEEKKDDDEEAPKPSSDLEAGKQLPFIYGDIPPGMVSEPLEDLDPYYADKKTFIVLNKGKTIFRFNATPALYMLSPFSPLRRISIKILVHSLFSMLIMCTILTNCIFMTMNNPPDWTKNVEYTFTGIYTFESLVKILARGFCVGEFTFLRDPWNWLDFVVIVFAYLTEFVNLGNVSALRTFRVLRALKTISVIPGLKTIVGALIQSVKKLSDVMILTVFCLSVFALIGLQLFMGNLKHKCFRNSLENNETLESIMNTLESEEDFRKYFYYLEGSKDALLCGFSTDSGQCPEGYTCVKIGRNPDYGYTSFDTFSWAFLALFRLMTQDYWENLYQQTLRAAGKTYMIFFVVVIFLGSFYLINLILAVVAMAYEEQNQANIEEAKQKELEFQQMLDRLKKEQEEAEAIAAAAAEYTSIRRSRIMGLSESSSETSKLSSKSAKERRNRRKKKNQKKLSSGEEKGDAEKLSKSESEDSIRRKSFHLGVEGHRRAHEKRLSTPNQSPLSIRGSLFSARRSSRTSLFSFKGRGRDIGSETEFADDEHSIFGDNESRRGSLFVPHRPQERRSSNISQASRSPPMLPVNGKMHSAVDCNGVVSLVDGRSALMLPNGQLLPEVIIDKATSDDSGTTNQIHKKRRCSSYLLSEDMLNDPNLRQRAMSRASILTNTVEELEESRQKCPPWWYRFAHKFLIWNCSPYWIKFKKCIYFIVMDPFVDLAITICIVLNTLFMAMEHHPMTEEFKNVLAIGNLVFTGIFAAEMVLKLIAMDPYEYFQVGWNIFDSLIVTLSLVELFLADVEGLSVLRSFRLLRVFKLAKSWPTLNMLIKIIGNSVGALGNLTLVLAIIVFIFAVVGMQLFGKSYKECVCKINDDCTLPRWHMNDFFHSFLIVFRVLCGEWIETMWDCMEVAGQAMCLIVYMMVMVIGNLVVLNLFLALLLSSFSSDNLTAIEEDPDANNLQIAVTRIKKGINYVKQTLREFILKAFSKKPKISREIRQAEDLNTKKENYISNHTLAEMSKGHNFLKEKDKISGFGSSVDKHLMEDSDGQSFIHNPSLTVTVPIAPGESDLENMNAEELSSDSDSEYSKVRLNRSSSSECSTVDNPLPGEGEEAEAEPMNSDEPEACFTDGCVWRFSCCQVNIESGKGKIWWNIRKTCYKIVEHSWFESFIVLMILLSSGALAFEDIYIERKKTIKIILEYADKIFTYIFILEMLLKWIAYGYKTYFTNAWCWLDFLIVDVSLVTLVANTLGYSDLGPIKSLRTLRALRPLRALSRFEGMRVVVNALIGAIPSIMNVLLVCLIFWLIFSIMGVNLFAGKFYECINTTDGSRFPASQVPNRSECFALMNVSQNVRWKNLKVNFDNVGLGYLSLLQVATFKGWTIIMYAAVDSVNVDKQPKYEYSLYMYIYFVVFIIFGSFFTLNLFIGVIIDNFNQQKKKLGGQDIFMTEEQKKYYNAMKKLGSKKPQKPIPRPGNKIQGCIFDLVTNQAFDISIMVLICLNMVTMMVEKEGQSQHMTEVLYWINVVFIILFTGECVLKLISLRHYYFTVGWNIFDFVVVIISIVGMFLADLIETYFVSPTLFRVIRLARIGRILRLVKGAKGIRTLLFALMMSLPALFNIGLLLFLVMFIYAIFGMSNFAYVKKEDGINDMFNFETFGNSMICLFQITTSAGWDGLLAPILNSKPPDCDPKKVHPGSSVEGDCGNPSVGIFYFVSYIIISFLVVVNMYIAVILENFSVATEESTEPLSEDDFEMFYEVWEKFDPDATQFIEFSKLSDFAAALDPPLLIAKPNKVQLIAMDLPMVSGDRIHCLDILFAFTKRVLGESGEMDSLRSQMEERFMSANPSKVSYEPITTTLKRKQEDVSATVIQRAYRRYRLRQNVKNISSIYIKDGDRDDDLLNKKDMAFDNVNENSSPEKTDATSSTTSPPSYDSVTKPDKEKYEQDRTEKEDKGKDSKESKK

With `COc1cc(-c2cc(OC)c(-n3c4c(ccc3=O)CN(S(=O)(=O)Nc3cccnn3)CC4)cc2F)cc(C(F)(F)F)c1` [Example 83, P-1-(2-fluoro-3′,5-dimethoxy-5′-(trifluoromethyl)-[1,1′-biphenyl]-4-yl)-2-oxo-N-(pyridazin-3-yl)-1,2,7,8-tetrahydro-1,6-naphthyridine-6(5H)-sulfonamide], the IC50 on human Nav1.7 [1] is 5.1 nM; on human Nav1.7 [2], 3.4 nM.
For `COc1cc(-c2ccc(F)c(C(F)F)c2)c(F)cc1-n1c2c(ccc1=O)CN(S(=O)(=O)Nc1cccnn1)CC2` [Example 85, P-1-(3′-(difluoromethyl)-2,4′-difluoro-5-methoxy-[1,1′-biphenyl]-4-yl)-2-oxo-N-(pyridazin-3-yl)-1,2,7,8-tetrahydro-1,6-naphthyridine-6(5H)-sulfonamide] the same measures were 17.4 nM and 4.3 nM.
The like results for `COc1cc(-c2cnc(OC)c(C(F)(F)F)c2)c(F)cc1-n1c2c(ccc1=O)CN(S(=O)(=O)Nc1cccnn1)CC2` [Example 80, P-1-(5-fluoro-2-methoxy-4-(6-methoxy-5-(trifluoromethyl)pyridin-3-yl)phenyl)-2-oxo-N-(pyridazin-3-yl)-1,2,7,8-tetrahydro-1,6-naphthyridine-6(5H)-sulfonamide] were, in that order, 13.9 nM and 5.4 nM.
The like results for `COc1cc(-c2ccc(OC)c(C(F)(F)F)c2)c(F)cc1-n1c2c(ccc1=O)CN(S(=O)(=O)Nc1cccnn1)CC2` [Example 82, P-1-(2-fluoro-4′,5-dimethoxy-3′-(trifluoromethyl)-[1,1′-biphenyl]-4-yl)-2-oxo-N-(pyridazin-3-yl)-1,2,7,8-tetrahydro-1,6-naphthyridine-6(5H)-sulfonamide] were, in that order, 25.8 nM and 15.6 nM.
On to `COc1cc(CCC(F)(F)F)c(F)cc1-n1c2c(ccc1=O)CN(S(=O)(=O)Nc1ccon1)CC2` [Example 94, P-1-(5-fluoro-2-methoxy-4-(3,3,3-trifluoropropyl)phenyl)-N-(isoxazol-3-yl)-2-oxo-1,2,7,8-tetrahydro-1,6-naphthyridine-6(5H)-sulfonamide], for which the IC50 came to 33.5 nM at human Nav1.7 [1] and 18.7 nM at human Nav1.7 [2].
As to `COc1cc(-c2cc(F)c(F)c(OC)c2)c(F)cc1-n1c2c(ccc1=O)CN(S(=O)(=O)Nc1cccnn1)CC2` [Example 79, P-2-oxo-N-(pyridazin-3-yl)-1-(2,3′,4′-trifluoro-5,5′-dimethoxy-[1,1′-biphenyl]-4-yl)-1,2,7,8-tetrahydro-1,6-naphthyridine-6(5H)-sulfonamide], the IC50 on human Nav1.7 [1] amounted to 2.6 nM; at human Nav1.7 [2], 3.9 nM.
In the case of `COc1cc(CCC(F)(F)F)c(Cl)cc1-n1c2c(ccc1=O)CN(S(=O)(=O)Nc1cccnn1)CC2` (single isomer, unassigned) [Example 96-P, P-1-(5-chloro-2-methoxy-4-(3,3,3-trifluoropropyl)phenyl)-2-oxo-N-(pyridazin-3-yl)-1,2,7,8-tetrahydro-1,6-naphthyridine-6(5H)-sulfonamide], the IC50 on human Nav1.7 [1] was determined as 33.9 nM; on human Nav1.7 [2] it was 9 nM.
For `COc1cc(CCC(F)(F)F)c(F)cc1-n1c2c(ccc1=O)CN(S(=O)(=O)Nc1cccnn1)CC2` [Example 95, P-1-(5-fluoro-2-methoxy-4-(3,3,3-trifluoropropyl)phenyl)-2-oxo-N-(pyridazin-3-yl)-1,2,7,8-tetrahydro-1,6-naphthyridine-6(5H)-sulfonamide] the same measures were 36.5 nM and 21 nM.
Regarding `COc1cc(-c2ccc(F)c(OC(F)(F)F)c2)c(F)cc1-n1c2c(ccc1=O)CN(S(=O)(=O)Nc1cccnn1)CC2` [Example 81, P-1-(2,4′-difluoro-5-methoxy-3′-(trifluoromethoxy)-[1,1′-biphenyl]-4-yl)-2-oxo-N-(pyridazin-3-yl)-1,2,7,8-tetrahydro-1,6-naphthyridine-6(5H)-sulfonamide], the IC50 on human Nav1.7 [1] came out at 8.6 nM; on human Nav1.7 [2] it was 3.9 nM.
For `COc1cc(-c2cc(F)c(F)c(C(F)F)c2)c(F)cc1-n1c2c(ccc1=O)CN(S(=O)(=O)Nc1cccnn1)CC2` [Example 86, P-1-(3′-(difluoromethyl)-2,4′,5′-trifluoro-5-methoxy-[1,1′-biphenyl]-4-yl)-2-oxo-N-(pyridazin-3-yl)-1,2,7,8-tetrahydro-1,6-naphthyridine-6(5H)-sulfonamide] the same measures were 14.3 nM and 7.1 nM.
For `COc1cc(-c2cc(F)cc(C(F)F)c2)c(F)cc1-n1c2c(ccc1=O)CN(S(=O)(=O)Nc1cccnn1)CC2` [Example 84, P-1-(3′-(difluoromethyl)-2,5′-difluoro-5-methoxy-[1,1′-biphenyl]-4-yl)-2-oxo-N-(pyridazin-3-yl)-1,2,7,8-tetrahydro-1,6-naphthyridine-6(5H)-sulfonamide], the half-inhibitory concentration (IC50) at human Nav1.7 [1] came to 17.1 nM; at human Nav1.7 [2] it was 8.3 nM.
In the case of `COc1cc(-c2cc(F)cc(Cl)c2)c(F)cc1-n1c2c(ccc1=O)CN(S(=O)(=O)Nc1ncccn1)CC2` (single isomer, unassigned) [Example 31-P, P-1-(3′-chloro-2,5′-difluoro-5-methoxy-4-biphenylyl)-2-oxo-N-2-pyrimidinyl-1,5,7,8-tetrahydro-1,6-naphthyridine-6(2H)-sulfonamide], the figures for the IC50 at human Nav1.7 [1] and on human Nav1.7 [3] were 36.9 nM and 205 nM, respectively.
For `COc1cc(-c2ccc(F)c(F)c2)c(F)cc1-n1c2c(ccc1=O)CN(S(=O)(=O)Nc1cccnn1)CC2` (single isomer, unassigned) [Example 32-M, M-2-oxo-N-3-pyridazinyl-1-(2,3′,4′-trifluoro-5-methoxy-4-biphenylyl)-1,5,7,8-tetrahydro-1,6-naphthyridine-6(2H)-sulfonamide] the same measures were 1000 nM and 20600 nM.
For `COc1cc(-c2cccc(C3CC3)c2)c(F)cc1-n1c2c(ccc1=O)CN(S(=O)(=O)Nc1cccnn1)CC2` [Example 42, P-1-(3′-cyclopropyl-2-fluoro-5-methoxy-4-biphenylyl)-2-oxo-N-3-pyridazinyl-1,5,7,8-tetrahydro-1,6-naphthyridine-6(2H)-sulfonamide] the same measures were 7.8 nM and 76.6 nM.
For the compound `COc1cc(-c2ccc(C(F)(F)F)cc2)c(F)cc1-n1c2c(ccc1=O)CN(S(=O)(=O)Nc1cccnn1)CC2` [Example 67, P-1-(2-fluoro-5-methoxy-4′-(trifluoromethyl)-[1,1′-biphenyl]-4-yl)-2-oxo-N-(pyridazin-3-yl)-1,2,7,8-tetrahydro-1,6-naphthyridine-6(5H)-sulfonamide], the IC50 was determined as 20.5 nM at human Nav1.7 [1] and 75.8 nM on human Nav1.7 [3].
The like results for `COc1cc(-c2cc(F)cc(F)c2)c(F)cc1-n1c2c(ccc1=O)CN(S(=O)(=O)Nc1ccon1)[C@@H](C)C2` (single isomer, unassigned) [Example 3-C-P] were, in that order, greater than 30000 nM and greater than 1000 nM.
The like results for `COc1cc(-c2cc(F)cc(Cl)c2)c(F)cc1-n1c2c(ccc1=O)CN(S(=O)(=O)Nc1cccnn1)CC2` (single isomer, unassigned) [Example 38-M, M-1-(3′-chloro-2,5′-difluoro-5-methoxy-4-biphenylyl)-2-oxo-N-3-pyridazinyl-1,5,7,8-tetrahydro-1,6-naphthyridine-6(2H)-sulfonamide] were, in that order, 662 nM and 3120 nM.
The like results for `COc1cc(-c2ccc(Cl)c(C)c2)c(F)cc1-n1c2c(ccc1=O)CN(S(=O)(=O)Nc1cc(C)ncn1)CC2` (racemic) [Example 40, (Rac)-1-(4′-chloro-2-fluoro-5-methoxy-3′-methyl-4-biphenylyl)-N-(6-methyl-4-pyrimidinyl)-2-oxo-1,5,7,8-tetrahydro-1,6-naphthyridine-6(2H)-sulfonamide] were, in that order, 42.3 nM and 204 nM.
Regarding `COc1cc(-c2cc(F)cc(Cl)c2)c(F)cc1-n1c2c(ccc1=O)CN(S(=O)(=O)Nc1ccccn1)CC2` (single isomer, unassigned) [Example 11-M, M-1-(3′-chloro-2,5′-difluoro-5-methoxy-4-biphenylyl)-2-oxo-N-2-pyridinyl-1,5,7,8-tetrahydro-1,6-naphthyridine-6(2H)-sulfonamide], the IC50 on human Nav1.7 [1] worked out at 849 nM; at human Nav1.7 [3], 4500 nM.

(Values after patent publication US10472356B2, “Bicyclic ketone sulfonamide compounds” (AMGEN INC., priority 2015, dated 2019).)
